Literature values, collected in US12599677B2, “Targeted PH sensitive liposomes” (Northwestern University, priority 2020, dated 2026).

solubility in water: low solubility in water
Structure (SMILES): C=C1CC[C@@H]2[C@](C)(CO)[C@H](O)CC[C@@]2(C)[C@@H]1C/C=C1/C(=O)OC[C@H]1O [andrographolide]
